Experimental data taken from patent US20030099944A1, “Combination therapy involving drugs which target cellular proteins and drugs which target pathogen-encoded proteins” (priority 1998, published 2003).
“Also recorded” adds a separate entry of the source. Read-outs that look alike come from different tables or passages of the source.

How the values were obtained:
[1] = test system: proteins of mock and HSV-infected cells; type: binding
[2] = test system: HSV-1 (KOS wild-type and ACV-resistant TK-); type: cell-based, herpes simplex virus type 1; details: 24 hours
Vero cells [3] = test: Toxicity by microscopic observation, Vero cells
HSV-1 DNA replication = type: cell-based, herpes simplex virus type 1; details: for fold viral DNA replication after release from PAA block: 50 μg/ml CHX alone
[4] = test system: ICP0 promoter (pWRICP0-CAT); type: cell-based, herpes simplex virus type 1; details: for effect on virion-induced IE gene expression: cultures treated 24 hours prior to infection; for Fold-induction of CAT activity: mock-infected, value (SEM)
HSV-1 strain KOS [5] = type: cell-based, herpes simplex virus type 1; details: passage 11, 100 μg/ml PAA
[6] = test system: HSV ts A15 transcripts and proteins; test: E and L gene expression of ts A15 after shift-down (RNase protection, metabolic labeling); type: cell-based, herpes simplex virus type 1; details: for accumulation of L proteins / levels of E proteins, including ICP8 and TK / steady-state levels of ICP8 and TK transcripts: 400 μg/ml PAA or 100 μM Rosco; for accumulation of L proteins / levels of E proteins, including ICP8 and TK: 16 or 24 hours post release
HSV ts A15 = type: cell-based, herpes simplex virus type 1
HSV-1 strain KOS [7] = test: HSV-1 replication in Vero cells, standard plaque assay; type: cell-based, herpes simplex virus type 1; details: for inhibition of HSV replication as a function of multiplicity: 0.1 to 10 PFU/cell, 100 μg/ml PAA or 100 μM Rosco, 24 hours
HSV-1 strain KOS [8] = test: HSV-1 replication in HEL cells, standard plaque assay; type: cell-based, herpes simplex virus type 1; details: for effect on HSV replication, single-cycle growth: 24 hours, 75 μM iso-Olo, 20 μM Lova, 5 ng/ml staurosporine, 70 μM PD98059
HEL cells [9] = test: Cell-cycle progression by FACS analysis, HEL cells; type: cell-based
[10] = test system: HSV-1 ICP4, TK and ICP8 RNAs; test: RNase protection assay of viral transcripts, infected HEL cells; type: cell-based, herpes simplex virus type 1
Procedure: Levels of GAPDH-, ICP4-, TK-, and ICP8-specific RNAs were measured by standard RNase protection assays (ProtectDirect: Ambion) as recommended by the manufacturer, with minor modifications.
Dried gels were exposed and analyzed in a PhosphoroImager system (Molecular Dynamics).

[11] = test system: latent HSV-1 in explanted TG; test: Explant-induced reactivation of latent HSV-1 from trigeminal ganglia; details: 40 μM Rosco, until 11 days post-explant
[12] = test system: HSV-1 ICP0, ICP4, ICP8, TK and gC transcripts; test: RNase protection assay of viral transcripts, infected Vero cells
[13] = test system: lymphocoriomeningitis virus (LCMV); type: cell-based
HSV-1, strain KOS [14] = test: HSV-induced stromal keratitis in C.AL.20 mice, intramuscular treatment
HSV-2 = type: cell-based, herpes simplex virus type 2
Vero cells [15] = test: Cell-cycle progression by FACS analysis, Vero cells; type: cell-based; details: 80 μM Rosco
vaccinia virus = type: cell-based
cdk-7 = cdk-7 (Homo sapiens, UniProt P50613); type: biochemical
Sequence of cdk-7 (P50613 whole entry, species assumed): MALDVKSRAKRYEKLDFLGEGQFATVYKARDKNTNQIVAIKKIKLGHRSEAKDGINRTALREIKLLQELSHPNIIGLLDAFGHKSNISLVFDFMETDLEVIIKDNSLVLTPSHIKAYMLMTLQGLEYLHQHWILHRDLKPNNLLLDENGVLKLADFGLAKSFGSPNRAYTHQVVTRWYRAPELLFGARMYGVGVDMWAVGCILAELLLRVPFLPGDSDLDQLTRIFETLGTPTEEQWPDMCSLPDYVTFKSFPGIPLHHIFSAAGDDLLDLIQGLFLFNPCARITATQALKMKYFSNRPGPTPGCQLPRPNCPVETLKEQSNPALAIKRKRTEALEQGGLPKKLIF
Sequence of cdk-7 (P51946 whole entry partner, species assumed): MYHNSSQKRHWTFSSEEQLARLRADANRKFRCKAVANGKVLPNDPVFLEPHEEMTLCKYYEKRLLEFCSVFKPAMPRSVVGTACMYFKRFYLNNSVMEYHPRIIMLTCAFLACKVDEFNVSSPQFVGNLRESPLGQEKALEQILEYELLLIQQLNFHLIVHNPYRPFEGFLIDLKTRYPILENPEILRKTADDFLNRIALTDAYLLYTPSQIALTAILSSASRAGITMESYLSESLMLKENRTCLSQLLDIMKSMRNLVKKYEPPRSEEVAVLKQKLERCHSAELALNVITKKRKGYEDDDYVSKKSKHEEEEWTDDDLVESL

cdk-8 = cdk-8 (Homo sapiens, UniProt P49336); type: biochemical
Sequence of cdk-8 (P49336 whole entry, species assumed): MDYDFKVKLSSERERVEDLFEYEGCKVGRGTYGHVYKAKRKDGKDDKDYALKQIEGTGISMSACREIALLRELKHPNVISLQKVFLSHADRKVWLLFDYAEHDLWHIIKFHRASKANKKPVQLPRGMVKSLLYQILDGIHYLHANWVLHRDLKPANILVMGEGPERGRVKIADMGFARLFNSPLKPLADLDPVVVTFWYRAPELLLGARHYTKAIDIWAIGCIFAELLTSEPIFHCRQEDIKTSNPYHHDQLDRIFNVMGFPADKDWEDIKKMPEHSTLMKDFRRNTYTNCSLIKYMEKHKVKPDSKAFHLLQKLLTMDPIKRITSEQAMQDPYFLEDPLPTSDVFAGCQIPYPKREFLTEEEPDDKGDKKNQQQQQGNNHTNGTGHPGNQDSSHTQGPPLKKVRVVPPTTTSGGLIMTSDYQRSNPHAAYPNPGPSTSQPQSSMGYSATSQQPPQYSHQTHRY
Sequence of cdk-8 (P24863 whole entry partner, species assumed): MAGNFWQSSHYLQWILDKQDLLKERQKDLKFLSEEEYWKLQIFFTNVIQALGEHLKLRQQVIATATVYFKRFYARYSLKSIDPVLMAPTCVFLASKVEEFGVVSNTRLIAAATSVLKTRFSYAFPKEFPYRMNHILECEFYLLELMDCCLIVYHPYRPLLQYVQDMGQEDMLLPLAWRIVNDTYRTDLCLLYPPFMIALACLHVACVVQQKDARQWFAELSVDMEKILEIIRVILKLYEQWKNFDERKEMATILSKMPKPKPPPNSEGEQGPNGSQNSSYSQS

CEMX174 cells = test: Toxicity for mock-infected CEMX174 cells, cell counts; type: cell-based
Excerpt: (§1) CEMX174 cells (a hybrid B/T cell line that supports replication of a spectrum of fresh clinical isolates of HIV) were infected with HIV (strain NL 4-3). […] HIV replication was monitored by measuring p24 levels and viable and nonviable cells were counted on days 2 and 4 pi. On day 4, Rosco-containing medium was removed and replaced with drug-free medium. On day 7, p24 levels and cell counts were repeated.

HIV (strain NL 4-3) = test: HIV replication in CEMX174 cells, p24 levels; type: cell-based, Human Immunodeficiency Virus; details: for p24 per viable cell: day 4
Excerpt: as §1

HSV-1, strain KOS [16] = test: HSV-1 replication in the eyes of infected ICR mice, topical treatment
[17] = test system: HSV-1 IE, E and L proteins; details: 100 μM Rosco, 0-6 and 0-12 hpr
HEL cells [18] = test system: HEL cells
[19] = 3 hours pi, 100 μM Roscovitine, 10 μM Lovastatin, 250 μM K252a
[20] = Rosco added after release of a 12 hour PAA block

## Purvalanol
[1]
  proteins bound in affinity binding assays: cdk-1, -2, -7, erks-1, -2, and cycA
[2]; 6 μM Purv with ACV
  enhancement of efficacy of ACV treatment: approximately 0.5 Log

## Cn1cnc2c(NCc3ccccc3)nc(NCCO)nc21 [Olo, Olomoucine]
Vero cells [3]
  concentration tolerated without evidence of toxicity: 200 µM

## C[C@@H]1C[C@@H]([C@H](O)CC2CC(=O)NC(=O)C2)C(=O)[C@@H](C)C1 [CHX, Cycloheximide]
HSV-1 DNA replication; by 20 hours post release
  fold viral DNA replication after release from PAA block: approximately 12 fold
HSV-1 DNA replication; first 12 hours post-release
  fold viral DNA replication after release from PAA block: approximately 6 fold

## COC(=O)[C@@]1(O)C[C@H]2O[C@]1(C)n1c3ccccc3c3c4c(c5c6ccccc6n2c5c31)C(=O)NC4 [K252a]
[4]
  effect on virion-induced IE gene expression: no effect
[4]; [19]
  Fold-induction of CAT activity: 0.8 (0.4) fold
[4]; 6 hours pi
  Fold-induction of CAT activity: 1.1 (0.3) fold
[4]; 9 hours pi
  Fold-induction of CAT activity: 1.0 (0.3) fold

## O=C(O)CP(=O)(O)O [PAA, phosphonoacetic acid]
HSV-1 strain KOS [5]
  titers in the presence of drug relative to titers in absence of drug: approximately 50%
HSV-1 DNA replication
  fold viral DNA replication within 20 hours after release from PAA block: approximately 7 fold
[6]; 100 μg/ml PAA, 16 hours after shift-down
  accumulation of ICP8 and TK transcripts: did not significantly alter
[6]
  accumulation of L proteins: significant inhibition
  levels of E proteins, including ICP8 and TK: without a major effect
[6]; 16 hours after shift-down
  steady-state levels of ICP8 and TK transcripts: slight increase
HSV ts A15; 100 μg/ml PAA or 100 μM Rosco, 24 hours after shift-down
  level of viral DNA relative to cells infected and maintained at the permissive temperature: about 35%
HSV ts A15; 100 μg/ml PAA or 100 μM Rosco, by 24 hours after shift-down
  fold viral DNA replication: ~50 fold
HSV ts A15; 100 μg/ml PAA, first 15 hours after shift-down
  fold viral DNA replication: about 5 fold
HSV ts A15; 400 μg/ml PAA
  viral DNA replication during 24 hours after release: totally inhibited
HSV-1 strain KOS [7]
  inhibition of HSV replication as a function of multiplicity: efficiently at multiplicities of 1 PFU/cell or lower

## CC[C@H](C)C(=O)O[C@H]1C[C@@H](C)C=C2C=C[C@H](C)[C@H](CC[C@@H]3C[C@@H](O)CC(=O)O3)[C@H]21 [Lova, Lovastatin]
[4]
  effect on virion-induced IE gene expression: no effect
[4]; [19]
  Fold-induction of CAT activity: 1.1 (0.6) fold
[4]; 6 hours pi
  Fold-induction of CAT activity: 1.0 (0.5) fold
[4]; 9 hours pi
  Fold-induction of CAT activity: 1.2 (0.6) fold
HSV-1 strain KOS [8]; 40 μM Rosco
  effect on HSV replication, single-cycle growth: failed to block HSV replication
HEL cells [9]; 5 μM Lova
  cells blocked in G0/G1: ~90%
HEL cells [9]; 20 μM Lova
  cells arrested in G0/G1: about 90%

## CN[C@@H]1C[C@H]2O[C@@](C)([C@@H]1OC)n1c3ccccc3c3c4c(c5c6ccccc6n2c5c31)C(=O)NC4 [Staurosporine]
HSV-1 strain KOS [8]; 40 μM Rosco
  effect on HSV replication, single-cycle growth: did not block HSV replication significantly

## CC[C@H](CO)Nc1nc(NCc2ccccc2)c2ncn(C(C)C)c2n1 [Rosco, Roscovitine]
[10]; 40 μM Rosco or 75 μM Olo, 5, 8 and 12 hours pi
  accumulation of TK and ICP8 mRNAs: reduced
[10]; 40 μM Rosco or 75 μM Olo, as early as 2 hours pi
  expression of immediate-early ICP4 mRNA: greatly impaired
[11]
  TG from which HSV reactivated: none
[12]; [20]
  levels of the transcripts of two E genes (ICP8, TK): no dramatic effect
  steady-state levels of ICP0 transcripts: decreased
[12]; change to 100 μM Rosco after 6 hours in CHX
  further accumulation of immediate early transcripts (ICP0, ICP4): significant reduction
[12]; change to 100 μM Rosco after 6 hours in CHX, compared to PAA or control medium
  levels of early transcripts (ICP8, TK): reduced
[13]
  replication of LCMV: did not inhibit replication
HSV-1, strain KOS [14]; 36 days pi
  corneas with only minor lesions, microscopic post-mortem evaluation: 6 of 9
  corneas with severe lesions, post-mortem: two
HSV-1, strain KOS [14]; day 11 pi, 11.33 μg IM twice daily for 11 days
  corneas with opacity scored above 2: none
HSV-1, strain KOS [14]; day 36 pi
  corneas with opacity scored above 2: one
HSV-1, strain KOS [14]; doses used in these experiments
  deleterious effect on the treated animals: did not have any obvious deleterious effect
HSV-1, strain KOS [14]; end of the experiment
  difference in average corneal score between Rosco-treated and control groups: more than 2 score points
HSV-1, strain KOS [14]; mouse, in vivo
  day on which average weight returned to original weight: 14 day pi
HSV-2
  replication of two HSV-2 strains: inhibited
HSV-1 strain KOS [8]; 40 μM Rosco
  reduction of 24 hour viral yield: 3 orders of magnitude
  effect on HSV replication, single-cycle growth: blocked HSV replication almost completely
HSV-1 strain KOS [8]; 40 μM Rosco removed at 24 hours pi
  viral titers 24 hours after release from Rosco block versus untreated cultures: approached
Vero cells [15]
  cells blocked in G0/G1: 85%
  cells blocked in G2/M: about 10%
HSV-1 DNA replication
  inhibition of HSV DNA replication after release from 12 hour PAA block: inhibited HSV DNA replication efficiently; also recorded: less efficiently
[6]
  accumulation of L proteins: significantly lower levels
  levels of E proteins, including ICP8 and TK: little or no measurable effect
[6]; 16 hours after shift-down
  steady-state levels of ICP8 and TK transcripts: slight increase
HEL cells [9]; 20 μM or higher of Rosco
  cells blocked in G0/G1: about 85%
  cells blocked in G2/M: about 8%
Vaccinia virus
  replication of vaccinia virus: did not inhibit replication
cdk-7
  phosphorylation of RNA PolII by cdk-7: inhibited
cdk-8
  phosphorylation of RNA PolII by cdk-8: not phosphorylation by cdk-8
CEMX174 cells; 30 μM Rosco
  toxicity for mock-infected cells: toxic
CEMX174 cells; 5, 10 or 15 μM Rosco
  toxicity for mock-infected cells: not
HIV (strain NL 4-3); 5 μM Rosco
  inhibition of HIV replication: more than 10 fold
  p24 per viable cell: ~1000 pg p24/cell
HIV (strain NL 4-3); 10 μM Rosco
  inhibition of HIV replication: 100 fold
HIV (strain NL 4-3); 15 μM Rosco
  inhibition of HIV replication: ~1000 fold
HIV (strain NL 4-3); 10, 15 and 30 μM Rosco
  p24 per viable cell: undectable
HIV (strain NL 4-3); cultures previously treated with 5 and 10 μM Rosco
  p24 levels after drug removal on day 4: returned to the level of the no drug control
HIV (strain NL 4-3); cultures treated with 15 and 30 μM Rosco
  p24 levels after drug removal on day 4: remained low
HSV-1, strain KOS [16]; 71, 35.5 and 17.7 μg/eye topical, twice daily until day 4 pi
  effect on HSV replication in the eye: inhibited HSV replication
HSV-1, strain KOS [16]; after day 4, pooled doses, 15 animals
  virus shed, less than control animals: approximately 10 fold
HSV-1, strain KOS [16]; by day 7 pi
  treated animals that had stopped shedding virus: more than 25%
HSV-1, strain KOS [16]; by day 9 pi
  treated animals that had stopped shedding virus: more than 75%
HSV-1 strain KOS [7]; 100 μM Rosco added at 1 or 3 hours pi
  inhibition of viral replication: almost total
HSV-1 strain KOS [7]; 100 μM Rosco added at 6, 9, or 12 hours pi
  HSV titers at 24 hours pi lower than in untreated cultures: approximately 2.5 orders of magnitude
HSV-1 strain KOS [7]; 100 μM Rosco, 24 hours after release
  viral replication when drug added at release from a 12 hour PAA block: inhibited viral replication efficiently
HSV-1 strain KOS [7]
  inhibition of HSV replication as a function of multiplicity: efficiently at all multiplicities tested
HSV-1 strain KOS [7]; Vero cells, 100 μM Rosco
  reduction of 24 hour viral yield: 4 orders of magnitude
HSV-1 strain KOS [7]; Vero cells, 100 μM Rosco removed at 24 hours pi
  viral titers 24 hours after release from Rosco block versus untreated cultures: reached
HSV-1 strain KOS [7]; Vero cells, 100 μM Rosco, 24 hours after change of medium
  HSV-1 replication when drug added after removal of CHX at 6 hours pi: inhibited HSV-1 replication efficiently
[17]
  E and L proteins after release from CHX block: No E or L proteins were detected
[2]; 10 μM Rosco with ACV
  enhancement of inhibition of HSV replication by ACV: approximately 0.3 Logs
[2]; 30 μM Rosco, all ACV concentrations
  enhancement of efficacy of ACV: approximately 1 Log

## COc1cccc(-c2cc(=O)c3ccccc3o2)c1N [PD98059]
HEL cells [18]
  concentrations with obvious cytotoxic effects: higher than 70 μM
HSV-1 strain KOS [8]; 40 μM Rosco
  effect on HSV replication, single-cycle growth: did not inhibit HSV replication

## Cn1cnc2nc(NCCO)nc(NCc3ccccc3)c21 [Iso-Olo, IsoOlomoucine]
HSV-1 strain KOS [8]; 40 μM Rosco
  effect on HSV replication, single-cycle growth: no detectable effect
